The text below walks through data of patent publication US9474814B2, “Differential evaporation potentiated disinfectant system” (XY, LLC, priority 2007, dated 2016).

Series [1] has as its system Staphylococcus aureus (ATCC 6538). Briefly: Potentiation Assay (non-evaporative vs evaporative procedure). The format is cell-based. Conditions: for Evaporated Log 10 Reduction: evaporated in centrifuge 60 minutes; for Non-evaporated Log 10 Reduction: set 60 minutes; for evaporative potentiation of antimicrobial efficacy: evaporative vs non-evaporative procedure, concentrations tested in water. As to the method: Now referring primarily to Table 5 and FIG. […] The non-evaporative and evaporative procedures included 50 μL of an overnight Staphylococcus aureus (ATCC 6538, ˜10^9 CFU/mL) culture added to each 2 mL sterile plastic vial with a conical bottom and dried without capping in a centrifuge for 30 minutes. One hundred microliters of the solution being tested was added to each vial (as triplicate vials) either let set for 60 minutes (non-evaporative) or evaporated in a centrifuge for 60 minutes (evaporative), with time to evaporate being determined by each DAA mixtures own evaporative characteristic. To the non-evaporated vials, 400 μL Mueller Hinton Broth (MHB) was added to the vial and 100 μL was plated onto Nutrient agar (NA). To the evaporated vials, 500 μL of MHB was added and 100 μL was plated onto NA. Plates were incubated overnight at ˜37° C. and counted (the “Potentiation Assay”).

Series [2] is described as follows: Relative evaporation rates. The format is physicochemical. Conditions: BuAc (reference) = 1.00. The source says:
Line C represents the change in fluid volume of a 20% (v/v) solution of diacetone alcohol in water caused by evaporation (a particular embodiment of the inventive differential evaporation antimicrobial composition), while line D represents the change in fluid phase concentration of the same 20% (v/v) diacetone alcohol in water occurring during the same fluid volume change. In this case, complete evaporation can occur in approximately 75 time units. Comparatively, the 20% (v/v) diacetone alcohol in water can be engaged with a population of microorganisms for a greater duration of time than the conventional antimicrobial composition without reapplication of an additional amount because evaporation occurs at a slower rate as shown by Table 3.

For series [3] the following is noted: neat substance; BuAc (reference) = 1.00; cited from earlier work.
The conditions of series [4]: Table 1; cited from earlier work.
For series [5] the following is noted: flash point; cited from earlier work.
The mark [6] stands for this setting: 5% v/v active component, 95% water.
Setting [7] is: 10% v/v active component, 90% water.
Where [8] appears, read: 15% v/v active component, 85% water.

For `CN(C)CCO` [DMEA, 2-dimethylaminoethanol], the “Evaporated Log 10 Reduction” value in series [1] (setting [6]) is “XX (denotes a plate where the number of colonies represented less than 10% of the number of colonies counted in the corresponding positive control plate, representing a significant reduction of the number of microorganisms (>3 Log10 reduction).)”; in series [1] (setting [7]), “XXx (denotes a plate where the number of colonies represented less than 1% of the number of colonies counted in the corresponding positive control plate, representing nearly complete reduction of the number of microorganisms (>4 Log10 reduction).)”; in series [1] (setting [8]), “XXx (denotes a plate where the number of colonies represented less than 1% of the number of colonies counted in the corresponding positive control plate, representing nearly complete reduction of the number of microorganisms (>4 Log10 reduction).)”. Besides, the “Non-evaporated Log 10 Reduction” value is given as “---0--- (denotes a plate where the numbers of colonies represented more than 50% of the number of colonies counted in the corresponding positive control plate, representing no significant reduction in the population of viable microorganisms (0 to 1 Log10 reduction).)” in series [1] (setting [6]); “---0--- (denotes a plate where the numbers of colonies represented more than 50% of the number of colonies counted in the corresponding positive control plate, representing no significant reduction in the population of viable microorganisms (0 to 1 Log10 reduction).)” in series [1] (setting [7]); “---0--- (denotes a plate where the numbers of colonies represented more than 50% of the number of colonies counted in the corresponding positive control plate, representing no significant reduction in the population of viable microorganisms (0 to 1 Log10 reduction).)” in series [1] (setting [8]).
As for `CC(=O)OCCOC(C)=O` [EGDA, ethylene glycol diethyl ester], the “Evaporated Log 10 Reduction” value is reported as “---0--- (denotes a plate where the numbers of colonies represented more than 50% of the number of colonies counted in the corresponding positive control plate, representing no significant reduction in the population of viable microorganisms (0 to 1 Log10 reduction).)” in series [1] (setting [6]); “XX (denotes a plate where the number of colonies represented less than 10% of the number of colonies counted in the corresponding positive control plate, representing a significant reduction of the number of microorganisms (>3 Log10 reduction).)” in series [1] (setting [7]); “XX (denotes a plate where the number of colonies represented less than 10% of the number of colonies counted in the corresponding positive control plate, representing a significant reduction of the number of microorganisms (>3 Log10 reduction).)” in series [1] (setting [8]). Moreover, the “Non-evaporated Log 10 Reduction” value in series [1] (setting [6]) is reported as “---0--- (denotes a plate where the numbers of colonies represented more than 50% of the number of colonies counted in the corresponding positive control plate, representing no significant reduction in the population of viable microorganisms (0 to 1 Log10 reduction).)”; in series [1] (setting [7]) it was “---0--- (denotes a plate where the numbers of colonies represented more than 50% of the number of colonies counted in the corresponding positive control plate, representing no significant reduction in the population of viable microorganisms (0 to 1 Log10 reduction).)”; in series [1] (setting [8]), “---0--- (denotes a plate where the numbers of colonies represented more than 50% of the number of colonies counted in the corresponding positive control plate, representing no significant reduction in the population of viable microorganisms (0 to 1 Log10 reduction).)”. Also, the “evaporative potentiation of antimicrobial efficacy” value (shortened to “evaporative potentiation”) in series [1] is “can be potentiated by evaporation”.
As to `CCCCOCCO` [EGMBE, ethylene glycol monobutyl ether], the “Relative Evaporation Rates (estimated)” value in series [2] (10% (v/v)) is given as 0.33; in series [2] (20% (v/v)) it was 0.30. Moreover, the “evaporative potentiation” value in series [1] is recorded as “can be potentiated by evaporation”. Moreover, in series [3], the “Relative Evaporation Rates” value is listed as 0.06.
On to `COCCOC(C)=O` [EGMEA, ethylene glycol monomethyl ether acetate], for which the “Evaporated Log 10 Reduction” value in series [1] (setting [6]) is “---0--- (denotes a plate where the numbers of colonies represented more than 50% of the number of colonies counted in the corresponding positive control plate, representing no significant reduction in the population of viable microorganisms (0 to 1 Log10 reduction).)”; in series [1] (setting [7]) it was “---0--- (denotes a plate where the numbers of colonies represented more than 50% of the number of colonies counted in the corresponding positive control plate, representing no significant reduction in the population of viable microorganisms (0 to 1 Log10 reduction).)”; in series [1] (setting [8]) it was “XX (denotes a plate where the number of colonies represented less than 10% of the number of colonies counted in the corresponding positive control plate, representing a significant reduction of the number of microorganisms (>3 Log10 reduction).)”. The “Non-evaporated Log 10 Reduction” value in series [1] (setting [6]) is recorded as “---0--- (denotes a plate where the numbers of colonies represented more than 50% of the number of colonies counted in the corresponding positive control plate, representing no significant reduction in the population of viable microorganisms (0 to 1 Log10 reduction).)”; in series [1] (setting [7]) it was “---0--- (denotes a plate where the numbers of colonies represented more than 50% of the number of colonies counted in the corresponding positive control plate, representing no significant reduction in the population of viable microorganisms (0 to 1 Log10 reduction).)”; in series [1] (setting [8]), “---0--- (denotes a plate where the numbers of colonies represented more than 50% of the number of colonies counted in the corresponding positive control plate, representing no significant reduction in the population of viable microorganisms (0 to 1 Log10 reduction).)”. Further, the “evaporative potentiation” value in series [1] was “can be potentiated by evaporation”.
For `CCO` [Ethanol, reference compound], in series [4], the “Azeotrope with Water % v/v” value was 94% v/v and the “Azeotrope with Water % w/w” value is on record as 95% w/w. Further, in series [5], the FP was 22 °C.
With `CCC(C)=NO` [MEKO, 2-butanone oxime], in series [1] (setting [7]), the “Evaporated Log 10 Reduction” value is recorded as “XXX (denotes a plate in which zero colonies were present, representing complete reduction of the number of microorganisms (>5 Log10 reduction).)” and the “Non-evaporated Log 10 Reduction” value is listed as “XXX (denotes a plate in which zero colonies were present, representing complete reduction of the number of microorganisms (>5 Log10 reduction).)”. In addition, in series [1] (setting [8]), the “Evaporated Log 10 Reduction” value is “XXX (denotes a plate in which zero colonies were present, representing complete reduction of the number of microorganisms (>5 Log10 reduction).)” and the “Non-evaporated Log 10 Reduction” value is “XXX (denotes a plate in which zero colonies were present, representing complete reduction of the number of microorganisms (>5 Log10 reduction).)”. Moreover, the “evaporative potentiation” value in series [1] is on record as “can be potentiated by evaporation”.
In the case of `CO` [Methanol], the FP in series [5] is 11 °C.
With `O` [water], the “Relative Evaporation Rates” value in series [3] is reported as 0.36.
